Patent EP4635969A1, “NOVEL GLUCOCORTICOID, METHOD FOR PREPARING SAME, AND USE THEREOF” (Tianjin Pharmaceutical Biotechnology Co., Ltd., priority 2022, dated 2024)

Tests used:
[1] = system: inflammatory bowel disease model rats; assay: Inflammatory bowel disease experiment (TNBS model): macroscopic injury score of the colon; format: in vivo; conditions: colon, day 5 after TNBS; 2 mg/kg once a day (compounds intraintestinally, dexamethasone by gavage)
Experimental: Pharmacological Example 7: Pharmacodynamic Experiment on Inflammatory Bowel Disease in Rats
Test samples: The jet-milled compounds 23 and 34 were accurately weighed and prepared as 2 mg/mL clear solutions using anhydrous ethanol, respectively. The solutions were then diluted to 0.2 mg/mL with double-distilled water as the test samples, and stored at room temperature protected from light until use.
Animals in Groups 2 to 5 were subjected to trinitrobenzene sulfonic acid (TNBS) modeling as follows: A 5% TNBS aqueous solution was adjusted to 20 mg/mL TNBS (50% ethanol solution) with alcohol and water. After fasting for 24 h, the rats were anesthetized using an inhalation anesthesia machine. A silicone hose was inserted approximately 8 cm into the anus, and then TNBS was injected at a dose of 50 mg/kg. After injection, the rats were placed vertically for 1 min to prevent the backflow of TNBS solution. Then, the rats were placed into their cages for observation until the animals recovered.
Drug administration started one day before modeling, with one dose administered 1 hour before modeling and then once a day for 5 consecutive days. […] Table 14. Animal grouping and drug administration dosages
The experiment ended on day 5 after TNBS modeling. After isoflurane anesthesia, blood was collected from the hearts, and the rats were euthanized. The abdominal cavity was rapidly opened, and the macroscopic injury scoring of the colon in rats was performed based on the adhesion, obstruction, thickening of the colonic wall, colonic congestion, and necrosis in the colon area. After clearing the colonic contents, the colonic samples were longitudinally incised. The proximal 2/3 of the colon was excised, prepared into Swiss rolls, and stored in 4% neutral buffered formalin for histopathological analysis. Tissues were trimmed, dehydrated, paraffin-embedded, and sectioned (approximately 5 µm thickness), stained with hematoxylin-eosin (HE), and observed for pathological changes. Pathologists performed blind scoring of colonic lesions.
Quantitative indices were first subjected to Bartlett's test for homogeneity of variance. When the variance was homogeneous (P > 0.05), one-way analysis of variance (ANOVA) was used for a statistical test; if there was statistical significance (P ≤ 0.05), Dunnett's t-test (Dunnett method) was used to compare intergroup differences; if there was no statistical significance (P > 0.05), the statistical analysis was concluded. When the variance was heterogeneous (P ≤ 0.05), Kruskal-Wallis H rank-sum test (K-W method) was used for statistical analysis: if there was statistical significance (P ≤ 0.05), Mann-Whitney U test (M-W method) was further performed to compare intergroup differences; if there was no statistical significance (P > 0.05), the statistical analysis was concluded.

uveitis model rats = assay: Anti-uveitis pharmacodynamic experiment (LPS model): ocular pathological score; format: in vivo, male SD rats
Experimental: Pharmacodynamic Experiment on Anti-Uveitis
Positive control drug: Fluorometholone Eye Drops (specification: 5 mL/5 mg; Santen Pharmaceutical (CHINA) Co., Ltd.; Lot No. : J20180068) was used as the positive control drug and stored at room temperature protected from light until use.
Fifty male SD rats underwent a one-week adaptive feeding period. […] Groups 2 to 5 were used to establish rat uveitis models by single subcutaneous injection of 1 mg/kg LPS (Salmonella; Sigma; Lot No. 0000164114) into the plantar tissue of the hindpaw. Salmonella endotoxin was dissolved in normal saline to prepare an injection solution at a concentration of 2 mg/mL, which was injected subcutaneously at 1 mg/kg into the plantar tissue of one paw of the rats. Group 1 was injected with an equal volume of normal saline.
At the end of the experiment, photos of the rats' eyes were taken using a slit-lamp microscope, and the differences in ocular lesions of rats among groups were compared and analyzed.
Statistical analysis was performed using SPSS software. Measurement data were expressed as mean ± standard deviation. One-way ANOVA was used for intergroup comparisons. For data with homogeneous variance, LSD test was used; for data with heterogeneous variance, Dunnett-t test was used. A value of P < 0.05 was considered statistically significant.

[2] = system: dry eye syndrome model New Zealand rabbits; assay: Dry eye syndrome experiment (benzalkonium chloride model): corneal fluorescein sodium staining; format: in vivo, male New Zealand White rabbits
Experimental: Pharmacological Example 6: Therapeutic Pharmacodynamic Experiment on Dry Eye Syndrome in New Zealand Rabbits
(§1) Positive control drug: Fluorometholone Eye Drops (specification: 5 mL/5 mg; Santen Pharmaceutical (CHINA) Co., Ltd.; Lot No.: 1FM6625) was used as the positive control drug and stored at room temperature protected from light until use.
Thirty male New Zealand White rabbits (conventional grade) were prepared. Six rabbits were randomly selected as the blank control group, and the remaining animals were administered 0.1% benzalkonium chloride to the left eye twice daily (morning and evening) , 10 µL/animal each time. […] During the administration, all animals except the blank control group were administered 10 µL of 0.1% benzalkonium chloride to the left eye once daily to maintain dry eye symptoms..
• Test time: D3, D7, D15; • Test animals: All animals were tested before grouping; all enrolled surviving animals were tested after administration; • Test method: 2 µL of 1% Fluorescein sodium was dropped into the conjunctival sac. After 5 s, the excess fluorescein was rinsed with 0.9% normal saline. The conjunctival staining was observed under a slit lamp with cobalt blue diffused light.
(§2) The normality and homogeneity of variance were tested by Levene's test. If there was no statistical significance (P > 0.05), one-way analysis of variance (ANOVA) was used for statistical analysis. If ANOVA was statistically significant (P ≤ 0.05), LSD test (parametric method) was used for comparative analysis. If the variance was heterogeneous (P ≤ 0.05), Kruskal-Wallis test was used. If the Kruskal-Wallis test was statistically significant (P ≤ 0.05), Dunnett's test (nonparametric method) was used for comparative analysis.

[3] = system: dry eye syndrome model New Zealand rabbits; assay: Dry eye syndrome experiment (benzalkonium chloride model): tear secretion test with phenol red cotton threads; format: in vivo, male New Zealand White rabbits
Experimental: as §1
(§3) Thirty male New Zealand White rabbits (conventional grade) were prepared. Six rabbits were randomly selected as the blank control group, and the remaining animals were administered 0.1% benzalkonium chloride to the left eye twice daily (morning and evening) , 10 µL/animal each time. On day 6 of modeling, tear secretion was measured using phenol red cotton threads to determine whether the model was successfully established. […] During the administration, all animals except the blank control group were administered 10 µL of 0.1% benzalkonium chloride to the left eye once daily to maintain dry eye symptoms..
• Test time: D3, D7, D15; • Test animals: All animals were tested before grouping; all enrolled surviving animals were tested after administration; • Test method: Tear secretion was measured using phenol red cotton threads. The tear secretion test paper was folded and placed at the middle and outer 1/3 of the rabbit palpebral conjunctival sac for 1 min. The test paper was then removed, observed, and recorded for its wetting length. The test was repeated 3 times, and the values were averaged.
as §2

[4] = system: intraocular pressure of guinea pigs; assay: Adverse reactions of continuous ocular administration: intraocular pressure; format: in vivo
Experimental: Pharmacological Example 9: Experiment on Adverse Reactions of Continuous Ocular Administration in Guinea Pigs
Test samples: Compounds 17 and 23 were prepared as 5 mg/5 mL ophthalmic suspensions with reference to the formulation of Fluorometholone Eye Drops, and stored at room temperature protected from light until use.
Positive control drug: Fluorometholone Eye Drops (specification: 5 mL/5 mg; Santen Pharmaceutical (CHINA) Co., Ltd.; Lot No.: 1FM6545), Loteprednol Etabonate Eye Drops (specification 0.5% (5 mg/mL); Shandong Bausch & Lomb Freda Pharmaceutical Co., Ltd; Lot No. 386521), stored at room temperature protected from light until use.
Animals: 50 guinea pigs, conventional grade, with an equal number of males and females, weighing 300-350 g..
Animal grouping: After 5 days of adaptive feeding, the guinea pigs were randomly divided into 5 groups based on body weight. Group 1 was the blank control group, and 50 µL of normal saline was dropped into the eyes (bilateral) of the guinea pigs. Groups 2 to 5 were the fluorometholone group, loteprednol group, compound 17 group, and compound 23 group, respectively, and the corresponding drugs were dropped into the eyes (bilateral) of the guinea pigs. Table 19. Animal grouping and drug administration dosages for the experiment on adverse reactions of continuous ocular administration in guinea pigs
Intraocular pressure measurement time: The intraocular pressure of animals in each group was measured before administration and on days 7, 14, 21, and 28 post-administration.

[5] = system: dry eye syndrome model New Zealand rabbits; assay: Dry eye syndrome experiment (benzalkonium chloride model): tear film break-up time; format: in vivo, male New Zealand White rabbits
Experimental: as §1, §3
• Test time: D3, D7, D15; • Test animals: All animals were tested before grouping; all enrolled surviving animals were tested after administration; • Test method: 1% Fluorescein sodium was dropped onto the inner side of the rabbit's lower eyelid, 10 µL/animal. The rabbit's eyes were closed and gently massaged to evenly distribute the fluorescein sodium on the eye surface. The rabbit's eyes were then sequentially placed under a slit lamp. The tear film break-up time was observed and recorded as the time from eye opening to the appearance of the first dark spot. If no dark spot appeared, the time was calculated as 60 seconds.
as §2

[6] = D3, 1 mg/mL, 50 µL/eye, 3 times a day for 14 days
[7] = D7, 1 mg/mL, 50 µL/eye, 3 times a day for 14 days
[8] = D15, 1 mg/mL, 50 µL/eye, 3 times a day for 14 days

## C[C@@H]1C[C@H]2[C@@H]3CCC4=CC(=O)C=C[C@]4(C)[C@@]3(F)[C@@H](O)C[C@]2(C)[C@@]1(O)C(=O)CO [Dexamethasone, reference compound]
[1]
  Macroscopic injury score: 5.00 ± 0.66

## CC(=O)[C@@]1(O)CC[C@H]2[C@@H]3C[C@H](C)C4=CC(=O)C=C[C@]4(C)[C@@]3(F)[C@@H](O)C[C@@]21C [Fluorometholone, reference compound]
Uveitis model rats; 1 mg/mL, 40 µL/eye, 3 times a day for 2 days
  Ocular pathological score: 7.1 ± 0.7
Uveitis model rats; compared with the model group
  ocular abnormalities / ocular pathological score: significantly improved the ocular abnormalities and reduced the ocular pathological score
[2]; [6]
  Corneal fluorescein sodium staining score D3: 1.67 ± 0.82
[2]; [7]
  Corneal fluorescein sodium staining score D7: 1.17 ± 0.41
[2]; [8]
  Corneal fluorescein sodium staining score D15: 1.0 ± 0
[2]; compared with the model group
  inflammatory response on the ocular surface / ocular symptoms: significantly inhibited the inflammatory response on the ocular surface on day 15
[3]; D0, 1 mg/mL, 50 µL/eye, 3 times a day for 14 days
  Wetting length of phenol red cotton threads (mm) D0: 26.35 ± 5.52 mm
[3]; [6]
  Wetting length of phenol red cotton threads (mm) D3: 29.45 ± 5.48' mm
[3]; [7]
  Wetting length of phenol red cotton threads (mm) D7: 30.41 ± 5.29" mm
[3]; [8]
  Wetting length of phenol red cotton threads (mm) D15: 32.26 ± 3.69 mm
[3]; compared with the model group
  tear secretion: significantly increased the tear secretion on day 15
[4]
  intraocular pressure after continuous ocular administration: intraocular pressure elevation was detected on day 7
[4]; D0, before administration, 50 µL/eye (compounds and fluorometholone 1 mg/mL, loteprednol 5 mg/mL)
  Intraocular pressure of guinea pigs (mmHg) D0: 14.3 ± 1.5 mmHg
[4]; D7, 50 µL/eye (compounds and fluorometholone 1 mg/mL, loteprednol 5 mg/mL)
  Intraocular pressure of guinea pigs (mmHg) D7: 20.5 ± 3.3 mmHg
[4]; D14, 50 µL/eye (compounds and fluorometholone 1 mg/mL, loteprednol 5 mg/mL)
  Intraocular pressure of guinea pigs (mmHg) D14: 21.2 ± 2.1 mmHg
[4]; D21, 50 µL/eye (compounds and fluorometholone 1 mg/mL, loteprednol 5 mg/mL)
  Intraocular pressure of guinea pigs (mmHg) D21: 23.0 ± 3.1 mmHg
[4]; D28, 50 µL/eye (compounds and fluorometholone 1 mg/mL, loteprednol 5 mg/mL)
  Intraocular pressure of guinea pigs (mmHg) D28: 22.5 ± 2.1 mmHg
[5]; [6]
  Tear film break-up time (s) D3: 43.17 ± 14.47 s
[5]; [7]
  Tear film break-up time (s) D7: 47.33 ± 16.37 s
[5]; [8]
  Tear film break-up time (s) D15: 51.33 ± 13.44" s
[5]; compared with the model group
  tear film break-up time: significantly increased the tear film break-up time on day 15
